In EPA's ToxRefDB 2:

What was measured:
[1] = system: primate; conditions: Subchronic oral toxicity in nonrodent, macaque, Gavage/Intubation, dose end: 90 day, group: systemic, systemic / in life observation / clinical signs / defecation (diarrhea) + systemic / in life observation / clinical signs / emesis
[2] = system: rabbit; conditions: Prenatal developmental toxicity study; new zealand white; Oral; Gavage/Intubation; dose end: 18 GD; group: maternal; systemic / in life observation / body weight / body weight gain + systemic / in life observation / clinical signs / [other] + systemic / in …
[3] = system: rat; conditions: Multigenerational reproductive toxicity study, sprague dawley, Oral, Gavage/Intubation, dose end: 1 generation
[4] = system: rat; conditions: Subchronic oral toxicity in rodents, sprague dawley, Gavage/Intubation, dose end: 30 day, group: systemic, systemic / in life observation / clinical signs / soft stools + systemic / in life observation / clinical signs / urine, discoloration
[5] = system: rat; conditions: Prenatal developmental toxicity study, sprague dawley, Oral, Gavage/Intubation, dose end: 15 GD, group: maternal
[6] = system: dog; conditions: Chronic toxicity; beagle; Oral; Feed; dose end: 52 week; group: systemic; systemic / in life observation / body weight / body weight + systemic / in life observation / food consumption / food consumption + systemic…
[7] = system: rat; conditions: Chronic toxicity, fischer, Oral, [Not Specified], dose end: 24 month, group: systemic
[8] = system: rat; conditions: Subchronic oral toxicity in rodents, Feed, dose end: 13 week, group: systemic, systemic / clinical chemistry / aspartate aminotransferase (ast/sgot) / aspartate aminotransferase (ast/sgot) + systemic / clinical …
[9] = system: rat; conditions: Subchronic oral toxicity in rodents, other, Feed, dose end: 3 month, group: systemic
[10] = system: dog; conditions: Chronic toxicity; beagle; Oral; Feed; dose end: 12 month; group: systemic; systemic / in life observation / body weight / body weight gain + systemic / in life observation / food consumption / food consumption + …
[11] = system: rabbit; conditions: Prenatal developmental toxicity study, chinchilla, Oral, Gavage/Intubation, dose end: 19 GD
[12] = system: dog; conditions: Subchronic oral toxicity in nonrodent, beagle, Feed, dose end: 13 week, group: systemic, systemic / pathology microscopic / liver / infiltration cellular + systemic / pathology microscopic / liver / necrosis + systemic / …
[13] = system: mouse; conditions: Carcinogenicity; other; Oral; Feed; dose end: 18 month; group: systemic; systemic / in life observation / body weight / body weight + systemic / in life observation / body weight / body weight gain + systemic / in…
[14] = system: rat; conditions: Prenatal developmental toxicity study, other, Oral, Gavage/Intubation, dose end: 15 GD
[15] = system: rat; conditions: Subchronic oral toxicity in rodents, fischer, Gavage/Intubation, dose end: 14 week
[16] = system: mouse; conditions: Subchronic oral toxicity in rodents, b6c3f1, Gavage/Intubation, dose end: 14 week, group: systemic
[17] = system: rat; conditions: Carcinogenicity; fischer; Oral; Gavage/Intubation; dose end: 2 year; group: systemic; systemic / pathology microscopic / kidney / nephropathy + systemic / pathology microscopic / liver / clear cell focus + systemic / pathology…
[18] = system: mouse; conditions: Carcinogenicity; b6c3f1; Oral; Gavage/Intubation; dose end: 2 year; group: systemic; systemic / pathology microscopic / bone marrow / hyperplasia + systemic / pathology microscopic / liver / hypertrophy + systemic / pathology…
[19] = system: mouse; conditions: Prenatal developmental toxicity study, cd1, Oral, Gavage/Intubation, dose end: 15 GD
[20] = system: rat; conditions: Prenatal developmental toxicity study, sprague dawley, Oral, Gavage/Intubation, dose end: 15 GD
[21] = system: rat; conditions: Multigenerational reproductive toxicity study, sprague dawley, Oral, Gavage/Intubation, dose end: 1 generation, group: parental
[22] = system: rat; conditions: Subchronic oral toxicity in rodents, fischer, Feed, dose end: 13 week, group: systemic, systemic / clinical chemistry / alanine aminotransferase (alt/sgpt) / alanine aminotransferase (alt/sgpt) + systemic / clinical chemistry / …
[23] = group: offspring, systemic / in life observation / body weight / offspring (pup) weight
[24] = group: parental, systemic / in life observation / clinical signs / [other]
[25] = group: parental, systemic / in life observation / clinical signs / [other] + systemic / in life observation / body weight / body weight gain + systemic / in …
[26] = systemic / in life observation / clinical signs / salivation + systemic / in life observation / clinical signs / soft stools + systemic / in…
[27] = systemic / pathology microscopic / testes / atrophy
[28] = systemic / pathology microscopic / urinary bladder / hyperplasia + systemic / clinical chemistry / bilirubin / total bilirubin
[29] = systemic / pathology microscopic / urinary bladder / hyperplasia + systemic / pathology microscopic / kidney / atrophy + systemic / …
[30] = group: developmental, developmental / developmental malformation / bone / unossified
[31] = group: maternal, systemic / in life observation / mortality / mortality
[32] = group: maternal, systemic / in life observation / mortality / mortality + systemic / in life observation / clinical signs / reduced motor activity + systemic…
[33] = group: developmental, developmental / developmental malformation / bone / bipartite ossification + developmental / developmental malformation / bone / dumbbell …
[34] = group: maternal, systemic / in life observation / body weight / body weight gain + systemic / in life observation / clinical signs / odorous urine + systemic…
[35] = group: maternal, reproductive / reproductive performance / estrous cycle / abnormal
[36] = group: systemic, systemic / clinical chemistry / alanine aminotransferase (alt/sgpt) / alanine aminotransferase (alt/sgpt) + systemic / clinical chemistry / …
[37] = systemic / hematology / heinz body / heinz body + systemic / hematology / methemoglobin / methemoglobin + systemic / in life observation / …
[38] = systemic / organ weight / liver / absolute + systemic / organ weight / liver / relative to body weight + systemic / pathology microscopic / …
[39] = group: developmental, systemic / in life observation / body weight / fetal weight
[40] = group: maternal, systemic / in life observation / mortality / mortality + systemic / organ weight / liver / absolute + systemic / organ weight / uterus / nos
[41] = group: maternal, systemic / in life observation / body weight / body weight gain + systemic / in life observation / clinical signs / fur (altered appearance…
[42] = systemic / clinical chemistry / albumin / albumin + systemic / clinical chemistry / albumin-globulin ratio / albumin-globulin ratio + …
[43] = systemic / clinical chemistry / cholesterol / cholesterol

COc1ccc2c(c[n+](C)c3c4cc5c(cc4ccc23)OCO5)c1OC.C[n+]1cc2c3c(ccc2c2ccc4cc5c(cc4c21)OCO5)OCO3.[Cl-].[Cl-] [Chelerythrine chloride mixture with sanguinarine chloride] was tested, and the LEL [1] was 10 mg/kg/day, the LOAEL [1] was 10 mg/kg/day and the NEL [1] was < 10 mg/kg/day. The NOAEL [1] was < 10 mg/kg/day, the LEL [2] was 25 mg/kg/day and the LOAEL [2] was 25 mg/kg/day. It also gave an NEL [2] of 15 mg/kg/day, an NOAEL [2] of 15 mg/kg/day and an LEL [3, 23] of 100 mg/kg/day. The LOAEL [3, 23] was 100 mg/kg/day, the NEL [3, 23] was 30 mg/kg/day and the NOAEL [3, 23] was 30 mg/kg/day. For the same compound, the LEL [3, 24] was 30 mg/kg/day, the LOAEL [3, 24] was 30 mg/kg/day and the NEL [3, 25] was 10 mg/kg/day. The NOAEL [3, 25] was 10 mg/kg/day.

O=C(O)c1c(Cl)c(Cl)c(C(=O)O)c(Cl)c1Cl [Chlorthal] was tested, and the LEL [4] was 2000 mg/kg/day, the LOAEL [4] was 2000 mg/kg/day and the NEL [4] was 500 mg/kg/day. For the same compound, the NOAEL [4] was 500 mg/kg/day, the LOAEL ([5]; systemic / in life observation / clinical signs / salivation + systemic / in life observation / clinical signs / soft stools) was 2500 mg/kg/day and the LEL [5, 26] was 2500 mg/kg/day. It also gave an NEL [5, 26] of 1250 mg/kg/day and an NOAEL [5, 26] of 1250 mg/kg/day.

For Cc1ccccc1CO[C@@H]1C[C@@]2(C(C)C)CC[C@]1(C)O2 [Cinmethylin], the LEL [6] was 75 mg/kg/day, the LOAEL [6] was 75 mg/kg/day and the NEL [6] was 7.5 mg/kg/day. The NOAEL [6] was 7.5 mg/kg/day, the LOAEL ([7]; systemic / pathology microscopic / kidney / nephropathy) was 150 mg/kg/day and the NOAEL ([7]; systemic / pathology microscopic / kidney / nephropathy + systemic / organ weight / liver / relative to body weight + systemic / organ …) was 5 mg/kg/day. For the same compound, the LEL [7, 27] was 1.5 mg/kg/day, the NEL [7, 27] was < 1.5 mg/kg/day and the LEL [8] was 1.5 mg/kg/day. For the same compound, the LOAEL [8] was > 50 mg/kg/day, the NEL [8] was < 1.5 mg/kg/day and the NOAEL [8] was ≥ 50 mg/kg/day.

With CCCCCC(C)OC(=O)COc1ccc(Cl)c2cccnc12 (configuration not stated) [Cloquintocet-mexyl] the LEL [9, 28] was 63.9 mg/kg/day, the LOAEL [9, 28] was 63.9 mg/kg/day and the NEL [9, 29] was 9.66 mg/kg/day. For the same compound, the NOAEL [9, 29] was 9.66 mg/kg/day, the LEL [10] was 196 mg/kg/day and the LOAEL [10] was 196 mg/kg/day. For the same compound, the NEL [10] was 43 mg/kg/day, the NOAEL [10] was 43 mg/kg/day and the LEL [11, 30] was 60 mg/kg/day. For the same compound, the LOAEL [11, 30] was > 300 mg/kg/day, the NEL [11, 30] was 10 mg/kg/day and the NOAEL [11, 30] was ≥ 300 mg/kg/day. For the same compound, the LOAEL [11, 31] was 300 mg/kg/day, the LEL [11, 32] was 300 mg/kg/day and the NEL [11, 32] was 60 mg/kg/day. The NOAEL [11, 32] was 60 mg/kg/day, the LEL [12] was 30.2 mg/kg/day and the LOAEL [12] was 30.2 mg/kg/day. For the same compound, the NEL [12] was 3.3 mg/kg/day, the NOAEL [12] was 3.3 mg/kg/day and the LEL [13] was 520 mg/kg/day. For the same compound, the LOAEL [13] was 520 mg/kg/day, the NEL [13] was 102 mg/kg/day and the NOAEL [13] was 102 mg/kg/day. It also gave an LEL [14, 33] of 400 mg/kg/day, an LOAEL [14, 33] of 400 mg/kg/day and an NEL [14, 33] of 100 mg/kg/day. For the same compound, the NOAEL [14, 33] was 100 mg/kg/day, the LEL [14, 34] was 400 mg/kg/day and the LOAEL [14, 34] was 400 mg/kg/day. The NEL [14, 34] was 100 mg/kg/day and the NOAEL [14, 34] was 100 mg/kg/day.

With Cc1ccc(N(C)C)cc1 [N,N,4-Trimethylaniline] the LEL [15, 35] was 125 mg/kg/day, the LOAEL [15, 35] was > 1000 mg/kg/day and the NEL [15, 35] was 62.5 mg/kg/day. For the same compound, the NOAEL [15, 35] was ≥ 1000 mg/kg/day, the LEL [15, 36] was 62.5 mg/kg/day and the LOAEL [15, 36] was > 1000 mg/kg/day. The NEL [15, 36] was < 62.5 mg/kg/day, the NOAEL [15, 36] was ≥ 1000 mg/kg/day and the LOAEL [16, 37] was > 250 mg/kg/day. For the same compound, the NOAEL [16, 37] was ≥ 250 mg/kg/day, the LEL [16, 38] was 15 mg/kg/day and the NEL [16, 38] was < 15 mg/kg/day. The LEL [17] was 6 mg/kg/day, the LOAEL [17] was > 60 mg/kg/day and the NEL [17] was < 6 mg/kg/day. The NOAEL [17] was ≥ 60 mg/kg/day, the LEL [18] was 6 mg/kg/day and the LOAEL [18] was 6 mg/kg/day. The NEL [18] was < 6 mg/kg/day and the NOAEL [18] was < 6 mg/kg/day.

In the case of CN(C)[C@@H]1C(=O)C(C(N)=O)=C(O)[C@@]2(O)C(=O)C3=C(O)c4c(O)cccc4[C@@](C)(O)[C@H]3[C@H](O)[C@@H]12 [Oxytetracycline], the LEL [19, 39] is reported as 2100 mg/kg/day, the LOAEL [19, 39] is reported as > 2100 mg/kg/day and the NEL [19, 39] is reported as 1670 mg/kg/day. For the same compound, the NOAEL [19, 39] was ≥ 2100 mg/kg/day, the LEL [19, 31] was 1320 mg/kg/day and the NEL [19, 31] was < 1320 mg/kg/day. The LOAEL [19, 40] was > 2100 mg/kg/day, the NOAEL [19, 40] was ≥ 2100 mg/kg/day and the LEL [20, 39] was 1200 mg/kg/day. The LOAEL [20, 39] was > 1500 mg/kg/day, the NEL [20, 39] was < 1200 mg/kg/day and the NOAEL [20, 39] was ≥ 1500 mg/kg/day. For the same compound, the LEL [20, 41] was 1200 mg/kg/day, the LOAEL [20, 41] was > 1500 mg/kg/day and the NEL [20, 41] was < 1200 mg/kg/day. The NOAEL [20, 41] was ≥ 1500 mg/kg/day.

With O=S(=O)([O-])C(F)(F)C(F)(F)C(F)(F)C(F)(F)C(F)(F)C(F)(F)F.[K+] [PFHS-K] the LOAEL [21, 42] was > 10 mg/kg/day, the NOAEL [21, 42] was ≥ 10 mg/kg/day and the LEL [21, 43] was 0.3 mg/kg/day. For the same compound, the NEL [21, 43] was < 0.3 mg/kg/day.

CC(C)CCCCCOC(=O)c1nc(Cl)c(Cl)c(N)c1Cl [Picloram-isoctyl] showed an LEL [22] of 220 mg/kg/day, an LOAEL [22] of 220 mg/kg/day and an NEL [22] of 73 mg/kg/day. It also gave an NOAEL [22] of 73 mg/kg/day.
